According to patent US20180243298A1, “TRPV3 MODULATORS” (AbbVie Inc., priority 2015, published 2018):

Target: T1, human TRPV3 (Homo sapiens, UniProt Q8NET8)
T1 construct: expressed in transfected cells; host or cells: HEK293
T1 sequence (Q8NET8 1-790): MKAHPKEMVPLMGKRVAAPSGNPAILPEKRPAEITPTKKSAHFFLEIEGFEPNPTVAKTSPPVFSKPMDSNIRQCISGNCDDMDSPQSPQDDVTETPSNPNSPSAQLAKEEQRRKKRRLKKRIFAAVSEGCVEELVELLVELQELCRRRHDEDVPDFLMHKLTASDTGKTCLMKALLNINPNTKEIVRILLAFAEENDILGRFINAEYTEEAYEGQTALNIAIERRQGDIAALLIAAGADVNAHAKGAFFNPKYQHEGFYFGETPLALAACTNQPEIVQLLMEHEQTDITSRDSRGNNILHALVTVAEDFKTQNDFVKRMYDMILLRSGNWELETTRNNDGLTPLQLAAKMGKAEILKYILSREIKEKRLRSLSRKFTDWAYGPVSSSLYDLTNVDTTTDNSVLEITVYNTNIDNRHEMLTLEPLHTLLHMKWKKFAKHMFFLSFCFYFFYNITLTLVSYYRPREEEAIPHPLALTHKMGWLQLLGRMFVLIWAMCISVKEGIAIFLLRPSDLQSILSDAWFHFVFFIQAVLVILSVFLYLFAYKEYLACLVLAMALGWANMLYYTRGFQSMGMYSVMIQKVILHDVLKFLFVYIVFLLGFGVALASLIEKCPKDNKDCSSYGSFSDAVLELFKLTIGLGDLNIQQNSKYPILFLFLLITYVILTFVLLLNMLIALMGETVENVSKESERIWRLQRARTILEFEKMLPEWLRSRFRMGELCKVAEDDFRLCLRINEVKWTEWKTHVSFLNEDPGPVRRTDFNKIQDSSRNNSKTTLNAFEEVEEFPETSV
Assay: Calcium flux assay (FLIPR TETRA), recombinant HEK293 cells expressing TRPV3, 2-APB response
Format: cell-based
Conditions: 2-APB at its EC80
In short: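 Response is the peak fluorescence increase over baseline, as a percentage of the compound-free response to 2-APB at EC80. Calcium flux recorded on FLIPR TETRA in stable human or mouse TRPV3 HEK293 cells after 90–120 min Calcium-4 dye loading.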

SMILES	IC50
CCSc1ncnc(OC)c1C(=O)Nc1nc(C(F)(F)F)c(-c2ccccc2C#N)s1 [Example 160, N-[5-(2-cyanophenyl)-4-(trifluoromethyl)-1,3-thiazol-2-yl]-4-(ethylsulfanyl)-6-methoxypyrimidine-5-carboxamide]	< 50 nM
COc1nc(C#N)nc(C(F)(F)F)c1C(=O)Nc1nc(C(F)(F)F)c(I)s1 [Example 161, 2-cyano-N-[5-iodo-4-(trifluoromethyl)-1,3-thiazol-2-yl]-4-methoxy-6-(trifluoromethyl)pyrimidine-5-carboxamide]	100 to 500 nM
COc1ncnc(OC)c1C(=O)Nc1nc(C(F)(F)F)c(-c2cnc(C#N)nc2)s1 [Example 162, N-[5-(2-cyanopyrimidin-5-yl)-4-(trifluoromethyl)-1,3-thiazol-2-yl]-4,6-dimethoxypyrimidine-5-carboxamide]	100 to 500 nM
COc1ncnc(OC)c1C(=O)Nc1nc(C(F)(F)F)c(C(F)(F)F)s1 [Example 163, N-[4,5-bis(trifluoromethyl)-1,3-thiazol-2-yl]-4,6-dimethoxypyrimidine-5-carboxamide]	50 to 100 nM
COc1ncnc(OC)c1C(=O)Nc1nc(C(F)(F)F)c(C2=CCC(C#N)CC2)s1 (stereo not shown) [Example 164, N-[5-(4-cyanocyclohex-1-en-1-yl)-4-(trifluoromethyl)-1,3-thiazol-2-yl]-4,6-dimethoxypyrimidine-5-carboxamide]	100 to 500 nM
COc1ncnc(OC)c1C(=O)Nc1nc(C(F)(F)F)c(C2=CCN(S(C)(=O)=O)CC2)s1 [Example 165, 4,6-dimethoxy-N-{5-[1-(methylsulfonyl)-1,2,3,6-tetrahydropyridin-4-yl]-4-(trifluoromethyl)-1,3-thiazol-2-yl}pyrimidine-5-carboxamide]	500 to 1000 nM
COc1ncnc(OC)c1C(=O)Nc1nc(C(F)(F)F)c(-c2ccnc(C(F)(F)F)c2)s1 [Example 166, 4,6-dimethoxy-N-{4-(trifluoromethyl)-5-[2-(trifluoromethyl)pyridin-4-yl]-1,3-thiazol-2-yl}pyrimidine-5-carboxamide]	50 to 100 nM
COc1ncnc(OC)c1C(=O)Nc1nc(C(F)(F)F)c(-c2ccnc3ccccc23)s1 [Example 167, 4,6-dimethoxy-N-[5-(quinolin-4-yl)-4-(trifluoromethyl)-1,3-thiazol-2-yl]pyrimidine-5-carboxamide]	< 50 nM
COc1ncnc(OC)c1C(=O)Nc1nc(C(F)(F)F)c(-c2cnn(C3CC3)c2)s1 [Example 168, N-[5-(1-cyclopropyl-1H-pyrazol-4-yl)-4-(trifluoromethyl)-1,3-thiazol-2-yl]-4,6-dimethoxypyrimidine-5-carboxamide]	50 to 100 nM
COc1ncnc(OC)c1C(=O)Nc1nc(C(F)(F)F)c(C2CC(C(C)C)=NO2)s1 (stereo not shown) [Example 170, 4,6-dimethoxy-N-{5-[3-(propan-2-yl)-4,5-dihydro-1,2-oxazol-5-yl]-4-(trifluoromethyl)-1,3-thiazol-2-yl}pyrimidine-5-carboxamide]	100 to 500 nM
COc1ncnc(OC)c1C(=O)Nc1nc(C(F)(F)F)c(-c2cc(C(C)C)no2)s1 [Example 171, 4,6-dimethoxy-N-{5-[3-(propan-2-yl)-1,2-oxazol-5-yl]-4-(trifluoromethyl)-1,3-thiazol-2-yl}pyrimidine-5-carboxamide]	50 to 100 nM
COc1ncnc(OC)c1C(=O)Nc1nc(C(F)(F)F)c(-c2ccc(C(C)(C)C#N)cc2)s1 [Example 173, N-{5-[4-(2-cyanopropan-2-yl)phenyl]-4-(trifluoromethyl)-1,3-thiazol-2-yl}-4,6-dimethoxypyrimidine-5-carboxamide]	100 to 500 nM
COc1ncnc(OC)c1C(=O)Nc1nc(C(F)(F)F)c(-c2cnn(C(C)C)c2)s1 [Example 174, 4,6-dimethoxy-N-{5-[1-(propan-2-yl)-1H-pyrazol-4-yl]-4-(trifluoromethyl)-1,3-thiazol-2-yl}pyrimidine-5-carboxamide]	< 50 nM
COc1ncnc(OC)c1C(=O)Nc1nc(C(F)(F)F)c(-c2cnn(CC3CC3)c2)s1 [Example 175, N-{5-[1-(cyclopropylmethyl)-1H-pyrazol-4-yl]-4-(trifluoromethyl)-1,3-thiazol-2-yl}-4,6-dimethoxypyrimidine-5-carboxamide]	< 50 nM
COc1ncnc(OC)c1C(=O)Nc1nc(C(F)(F)F)c(-c2ccnn2C)s1 [Example 176, 4,6-dimethoxy-N-[5-(1-methyl-1H-pyrazol-5-yl)-4-(trifluoromethyl)-1,3-thiazol-2-yl]pyrimidine-5-carboxamide]	100 to 500 nM
CCn1cc(-c2sc(NC(=O)c3c(OC)ncnc3OC)nc2C(F)(F)F)cn1 [Example 177, N-[5-(1-ethyl-1H-pyrazol-4-yl)-4-(trifluoromethyl)-1,3-thiazol-2-yl]-4,6-dimethoxypyrimidine-5-carboxamide]	100 to 500 nM
COc1ncnc(OC)c1C(=O)Nc1nc(CCOc2ccc(F)cc2)cs1 [Example 178, N-{4-[2-(4-fluorophenoxy)ethyl]-1,3-thiazol-2-yl}-4,6-dimethoxypyrimidine-5-carboxamide]	500 to 1000 nM
COc1ncnc(OC)c1C(=O)Nc1nc(COc2ccccc2C)cs1 [Example 179, 4,6-dimethoxy-N-{4-[(2-methylphenoxy)methyl]-1,3-thiazol-2-yl}pyrimidine-5-carboxamide]	100 to 500 nM
COc1ncnc(OC)c1C(=O)Nc1nc(C(F)(F)F)c(-c2ccnn2C(C)C)s1 [Example 180, 4,6-dimethoxy-N-{5-[1-(propan-2-yl)-1H-pyrazol-5-yl]-4-(trifluoromethyl)-1,3-thiazol-2-yl}pyrimidine-5-carboxamide]	< 50 nM
COc1ncnc(OC)c1C(=O)Nc1nc(C(F)(F)F)c(-c2cn(C)nc2C(C)C)s1 [Example 181, 4,6-dimethoxy-N-{5-[1-methyl-3-(propan-2-yl)-1H-pyrazol-4-yl]-4-(trifluoromethyl)-1,3-thiazol-2-yl}pyrimidine-5-carboxamide]	50 to 100 nM
COc1ncnc(OC)c1C(=O)Nc1nc(C(F)(F)F)c(-c2ccnc(N3CCOCC3)c2)s1 [Example 182, 4,6-dimethoxy-N-{5-[2-(morpholin-4-yl)pyridin-4-yl]-4-(trifluoromethyl)-1,3-thiazol-2-yl}pyrimidine-5-carboxamide]	50 to 100 nM
COc1ncc(-c2sc(NC(=O)c3c(OC)ncnc3OC)nc2C(F)(F)F)cc1C#N [Example 184, N-[5-(5-cyano-6-methoxypyridin-3-yl)-4-(trifluoromethyl)-1,3-thiazol-2-yl]-4,6-dimethoxypyrimidine-5-carboxamide]	< 50 nM
COc1ncnc(OC)c1C(=O)Nc1nc(C(F)(F)F)c(-c2cccnc2N2CCOCC2)s1 [Example 185, 4,6-dimethoxy-N-{5-[2-(morpholin-4-yl)pyridin-3-yl]-4-(trifluoromethyl)-1,3-thiazol-2-yl}pyrimidine-5-carboxamide]	< 50 nM
COc1ncnc(OC)c1C(=O)Nc1nc(C(F)(F)F)c(-c2cn(C)nc2C(F)(F)F)s1 [Example 186, 4,6-dimethoxy-N-{5-[1-methyl-3-(trifluoromethyl)-1H-pyrazol-4-yl]-4-(trifluoromethyl)-1,3-thiazol-2-yl}pyrimidine-5-carboxamide]	< 50 nM
COc1ncnc(OC)c1C(=O)Nc1nc(C(F)(F)F)c(-c2cc3ncccc3o2)s1 [Example 187, N-[5-(furo[3,2-b]pyridin-2-yl)-4-(trifluoromethyl)-1,3-thiazol-2-yl]-4,6-dimethoxypyrimidine-5-carboxamide]	100 to 500 nM
